Values after ≈ are worked out from the molar mass of the structure shown.
What was measured:
[1] = molecular target: T1, UDP-3-O-acyl-N-acetylglucosamine deacetylase (Escherichia coli K-12, UniProt P0A725); assay: Inhibition of Escherichia coli LpxC using UDP-3-O-(R-3-hydroxymyristoyl)GlcNAc as substrate after 60 mins by OPA reagent based fluorescence assay
T1 sequence (P0A725 whole entry): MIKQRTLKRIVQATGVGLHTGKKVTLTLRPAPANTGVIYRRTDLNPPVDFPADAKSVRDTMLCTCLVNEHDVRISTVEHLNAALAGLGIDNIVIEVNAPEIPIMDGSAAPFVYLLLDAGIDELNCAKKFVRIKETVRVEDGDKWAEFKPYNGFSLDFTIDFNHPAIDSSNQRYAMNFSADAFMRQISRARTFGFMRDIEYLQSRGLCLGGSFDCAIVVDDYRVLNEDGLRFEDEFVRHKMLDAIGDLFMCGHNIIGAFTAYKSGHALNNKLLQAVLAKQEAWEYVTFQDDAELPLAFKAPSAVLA

Pseudomonas aeruginosa = assay: Antibacterial activity against Pseudomonas aeruginosa PAO 4009 by agar dilution method; type: functional
Klebsiella pneumoniae = assay: Antibacterial activity against Klebsiella pneumoniae ATCC 13883 by agar dilution method; type: functional
Escherichia coli = assay: Antibacterial activity against Escherichia coli TG1 by agar dilution method; type: functional
Staphylococcus aureus = assay: Antibacterial activity against Staphylococcus aureus ATCC 29213 by agar dilution method; type: functional
Cytochrome P450 1A2 = molecular target: T2, Cytochrome P450 1A2 (Homo sapiens, UniProt P05177); assay: Time-dependent inhibition of CYP1A2 (unknown origin); type: ADME
T2 sequence (P05177 whole entry): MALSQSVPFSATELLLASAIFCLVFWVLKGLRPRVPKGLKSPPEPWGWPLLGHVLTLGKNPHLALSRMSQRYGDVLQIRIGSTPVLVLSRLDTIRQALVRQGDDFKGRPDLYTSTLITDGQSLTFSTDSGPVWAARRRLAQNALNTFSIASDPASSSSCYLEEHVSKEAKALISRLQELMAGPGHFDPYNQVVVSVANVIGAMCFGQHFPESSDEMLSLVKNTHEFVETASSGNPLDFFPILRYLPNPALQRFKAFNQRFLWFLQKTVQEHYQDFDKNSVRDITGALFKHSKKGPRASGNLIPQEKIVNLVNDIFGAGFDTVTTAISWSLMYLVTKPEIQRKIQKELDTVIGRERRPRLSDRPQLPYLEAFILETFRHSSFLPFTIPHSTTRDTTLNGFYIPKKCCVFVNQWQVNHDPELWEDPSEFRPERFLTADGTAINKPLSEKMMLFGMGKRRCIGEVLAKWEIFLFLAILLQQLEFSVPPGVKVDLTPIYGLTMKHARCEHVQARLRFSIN

Cytochrome P450 2D6 = Cytochrome P450 2D6 (Homo sapiens, UniProt P10635); assay: Time-dependent inhibition of CYP2D6 (unknown origin); type: ADME
Chain of Cytochrome P450 2D6 (P10635 whole entry): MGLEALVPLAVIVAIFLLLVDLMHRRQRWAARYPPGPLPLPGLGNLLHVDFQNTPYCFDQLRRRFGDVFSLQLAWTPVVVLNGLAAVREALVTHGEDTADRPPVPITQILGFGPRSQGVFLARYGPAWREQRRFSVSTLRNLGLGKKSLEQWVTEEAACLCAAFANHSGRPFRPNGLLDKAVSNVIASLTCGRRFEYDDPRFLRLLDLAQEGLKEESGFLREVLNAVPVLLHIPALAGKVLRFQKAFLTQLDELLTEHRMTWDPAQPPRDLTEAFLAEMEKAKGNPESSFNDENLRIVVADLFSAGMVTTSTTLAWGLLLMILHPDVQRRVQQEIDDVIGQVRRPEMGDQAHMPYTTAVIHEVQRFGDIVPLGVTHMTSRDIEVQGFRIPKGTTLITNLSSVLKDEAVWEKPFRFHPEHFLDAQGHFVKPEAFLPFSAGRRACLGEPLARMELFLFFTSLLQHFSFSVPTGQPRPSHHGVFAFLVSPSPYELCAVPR

Cytochrome P450 2C9 = Cytochrome P450 2C9 (Homo sapiens, UniProt P11712); assay: Time-dependent inhibition of CYP2C9 (unknown origin); type: ADME
Chain of Cytochrome P450 2C9 (P11712 whole entry): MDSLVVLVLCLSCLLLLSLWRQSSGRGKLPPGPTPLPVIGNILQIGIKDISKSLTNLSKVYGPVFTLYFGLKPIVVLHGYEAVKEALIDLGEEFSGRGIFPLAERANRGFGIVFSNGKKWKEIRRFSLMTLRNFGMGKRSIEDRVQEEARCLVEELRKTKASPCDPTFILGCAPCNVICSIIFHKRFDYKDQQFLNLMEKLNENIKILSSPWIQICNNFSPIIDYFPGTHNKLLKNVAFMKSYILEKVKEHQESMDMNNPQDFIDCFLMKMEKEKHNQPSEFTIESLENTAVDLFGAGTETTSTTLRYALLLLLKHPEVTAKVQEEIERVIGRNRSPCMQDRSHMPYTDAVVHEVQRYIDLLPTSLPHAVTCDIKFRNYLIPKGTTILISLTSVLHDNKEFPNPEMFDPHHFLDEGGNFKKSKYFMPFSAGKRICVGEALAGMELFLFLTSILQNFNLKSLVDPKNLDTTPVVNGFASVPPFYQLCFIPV

Cytochrome P450 3A4 = Cytochrome P450 3A4 (Homo sapiens, UniProt P08684); assay: Time-dependent inhibition of CYP3A4 (unknown origin); type: ADME
Chain of Cytochrome P450 3A4 (P08684 whole entry): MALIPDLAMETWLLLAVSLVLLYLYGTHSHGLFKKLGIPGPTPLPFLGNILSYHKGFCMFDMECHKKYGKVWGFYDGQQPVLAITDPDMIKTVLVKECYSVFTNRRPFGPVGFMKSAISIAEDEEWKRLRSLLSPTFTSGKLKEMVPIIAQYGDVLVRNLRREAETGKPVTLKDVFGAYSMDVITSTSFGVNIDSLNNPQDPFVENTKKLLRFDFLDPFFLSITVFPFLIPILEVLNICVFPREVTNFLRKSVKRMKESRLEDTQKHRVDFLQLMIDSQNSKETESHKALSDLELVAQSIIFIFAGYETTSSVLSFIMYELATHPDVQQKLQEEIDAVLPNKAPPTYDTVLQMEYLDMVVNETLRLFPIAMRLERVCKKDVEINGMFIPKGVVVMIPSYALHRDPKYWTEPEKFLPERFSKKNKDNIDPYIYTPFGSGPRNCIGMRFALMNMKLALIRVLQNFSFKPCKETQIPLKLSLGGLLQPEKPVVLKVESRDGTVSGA

Cytochrome P450 2C19 = Cytochrome P450 2C19 (Homo sapiens, UniProt P33261); assay: Time-dependent inhibition of CYP2C19 (unknown origin); type: ADME
Chain of Cytochrome P450 2C19 (P33261 whole entry): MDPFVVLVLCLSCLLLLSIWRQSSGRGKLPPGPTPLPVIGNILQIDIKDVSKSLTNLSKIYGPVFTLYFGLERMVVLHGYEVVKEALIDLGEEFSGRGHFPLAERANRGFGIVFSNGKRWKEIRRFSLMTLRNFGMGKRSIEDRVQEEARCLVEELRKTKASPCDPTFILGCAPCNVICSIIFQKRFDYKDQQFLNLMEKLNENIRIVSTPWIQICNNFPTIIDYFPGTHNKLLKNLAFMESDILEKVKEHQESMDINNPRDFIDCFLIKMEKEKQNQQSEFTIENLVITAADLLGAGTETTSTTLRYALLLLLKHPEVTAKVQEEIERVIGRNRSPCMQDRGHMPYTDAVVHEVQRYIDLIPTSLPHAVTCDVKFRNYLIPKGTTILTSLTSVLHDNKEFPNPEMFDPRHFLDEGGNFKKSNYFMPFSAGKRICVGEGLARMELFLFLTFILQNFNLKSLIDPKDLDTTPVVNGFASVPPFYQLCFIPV

SMILES | IC50 [1] [nM] | MIC (Pseudomonas aeruginosa) [µg/mL] | MIC (Klebsiella pneumoniae) [µg/mL] | MIC (Escherichia coli) [µg/mL] | MIC (Staphylococcus aureus) [µg/mL] | TDI (Cytochrome P450 1A2) | TDI (Cytochrome P450 2D6) | TDI (Cytochrome P450 2C9) | TDI (Cytochrome P450 3A4) | TDI (Cytochrome P450 2C19)
Cc1cnc(-c2ccc(C(=O)N[C@H](C(=O)NO)C(C)(C)NS(C)(=O)=O)cc2)nc1 | > 10000 | 16 (≈ 38 µM) | > 128 | 64 (≈ 152 µM) |  |  |  |  |  | 
CC(C)(NS(C)(=O)=O)[C@H](NC(=O)c1ccc(-c2cc3ccncc3o2)cc1)C(=O)NO | 1400 | 8 (≈ 17.9 µM) | 128 (≈ 287 µM) | 8 (≈ 17.9 µM) | > 128 |  |  |  |  | 
CC(C)(NS(C)(=O)=O)[C@H](NC(=O)c1ccc(-c2nc3ccccc3o2)cc1)C(=O)NO | 410 | 4 (≈ 8.96 µM) | 8 (≈ 17.9 µM) | 1 (≈ 2.24 µM) | > 128 |  |  |  |  | 
Cc1ncc(-c2ccc(C(=O)N[C@H](C(=O)NO)C(C)(C)NS(C)(=O)=O)cc2)cn1 | > 10000 | > 128 | > 128 | > 128 |  |  |  |  |  | 
Cc1ccc(-c2ccc(C(=O)N[C@H](C(=O)NO)C(C)(C)NS(C)(=O)=O)cc2)cc1 | 420 | 0.5 (≈ 1.19 µM) | 4 (≈ 9.54 µM) | 1 (≈ 2.38 µM) | > 128 | Active | Active | Active | Active | Active
CC(C)(NS(C)(=O)=O)[C@H](NC(=O)c1ccc(-c2cc3cncnc3o2)cc1)C(=O)NO | > 10000 | 32 (≈ 71.5 µM) | > 128 | 128 (≈ 286 µM) | > 128 |  |  |  |  | 
CC(C)(NS(C)(=O)=O)[C@H](NC(=O)c1ccc(-c2cc3ccc(O)cc3o2)cc1)C(=O)NO | 140 | 2 (≈ 4.33 µM) | 8 (≈ 17.3 µM) | 1 (≈ 2.17 µM) | > 64 |  |  |  |  | 
CC(C)(NS(C)(=O)=O)[C@H](NC(=O)c1ccc(-c2cc3cc(F)ccc3o2)cc1)C(=O)NO | 100 | 0.5 (≈ 1.08 µM) | 1 (≈ 2.16 µM) | 0.25 (≈ 0.539 µM) | 32 (≈ 69 µM) |  |  |  |  | 
CN(C)CCOc1ccc2cc(-c3ccc(C(=O)N[C@H](C(=O)NO)C(C)(C)NS(C)(=O)=O)cc3)oc2c1 | 22 | 8 (≈ 15 µM) | 32 (≈ 60.1 µM) | 4 (≈ 7.51 µM) | > 128 |  |  |  |  | 
C[C@@H](O)[C@H](NC(=O)c1ccc(C#Cc2ccc(CN3CCOCC3)cc2)cc1)C(=O)NO |  | 0.5 (≈ 1.14 µM) | 0.25 (≈ 0.571 µM) | 0.125 (≈ 0.286 µM) | > 128 |  |  |  |  | 
Cc1ccc(-c2ccc(C(=O)N[C@H](C(=O)NO)C(C)(C)NS(C)(=O)=O)nc2)cc1 | > 10000 | 32 (≈ 76.1 µM) | > 128 | 32 (≈ 76.1 µM) |  |  |  |  |  | 
CC(C)(NS(C)(=O)=O)[C@H](NC(=O)c1ccc(-c2cc3ccc(OCCO)cc3o2)cc1)C(=O)NO | 10 | 4 (≈ 7.91 µM) | 8 (≈ 15.8 µM) | 1 (≈ 1.98 µM) | > 128 |  |  |  |  | 
CC(C)(NS(C)(=O)=O)[C@H](NC(=O)c1ccc(-c2cc3cc4c(cc3o2)OCO4)cc1)C(=O)NO | 12 | 0.5 (≈ 1.02 µM) | 0.5 (≈ 1.02 µM) | 0.063 (≈ 0.129 µM) | > 32 |  |  |  |  | 
CC(C)(NS(C)(=O)=O)[C@H](NC(=O)c1ccc(-c2cc3ccc(F)cc3o2)cc1)C(=O)NO | 79 | 0.5 (≈ 1.08 µM) | 1 (≈ 2.16 µM) | 0.25 (≈ 0.539 µM) | 64 (≈ 138 µM) |  |  |  |  | 
Cc1ccc(-c2ccc(C(=O)N[C@H](C(=O)NO)C(C)(C)NS(C)(=O)=O)cn2)cc1 | 1500 | 4 (≈ 9.51 µM) | 64 (≈ 152 µM) | 8 (≈ 19 µM) |  |  |  |  |  | 
CC(C)(NS(C)(=O)=O)[C@H](NC(=O)c1ccc(-c2cc3ccccn3n2)cc1)C(=O)NO | > 10000 | 4 (≈ 8.98 µM) | > 128 | 64 (≈ 144 µM) | > 128 |  |  |  |  | 
CC(C)(NS(C)(=O)=O)[C@H](NC(=O)c1ccc(-c2ccccc2)cc1)C(=O)NO | 1200 | 1 (≈ 2.47 µM) | 64 (≈ 158 µM) | 2 (≈ 4.93 µM) |  |  |  |  |  | 
CC(C)(NS(C)(=O)=O)[C@H](NC(=O)c1ccc(-c2cc3ccccc3o2)cc1)C(=O)NO | 81 | 1 (≈ 2.24 µM) | 1 (≈ 2.24 µM) | 0.25 (≈ 0.561 µM) | 64 (≈ 144 µM) |  |  |  |  | 

Reference: ChEMBL document CHEMBL4002609, “Sulfonamide-based non-alkyne LpxC inhibitors as Gram-negative antibacterial agents” (Bioorg Med Chem Lett, 2017)
